Data: US20230183218A1, “CONDENSED SUBSTITUTED HYDROPYRROLES AS ANTAGONISTS OF THE MUSCARINIC ACETYLCHOLINE RECEPTOR M4” (Vanderbilt University, priority 2020, published 2023)

Experiments:
Human M4 = target: T1, Human M4 (Homo sapiens, UniProt P08173); experiment: mAChR M4 cell-based functional assay (calcium flux, antagonist mode vs EC80 acetylcholine), human M4/Gqi5/CHO-K1 cells; settings: for remaining activity at 30 µM: CHO-K1, % ACh maximum at 30 μM, human M4, read-out: Human M4 Emin (%); for IC50: decrease of response elicited by EC80 acetylcholine, human M4/Gqi5 CHO-K1 cells
T1 construct: expressed in transfected cells; host or cells: CHO-K1 (ATCC), stably co-expressing chimeric G protein Gqi5
T1 sequence (P08173 1-479): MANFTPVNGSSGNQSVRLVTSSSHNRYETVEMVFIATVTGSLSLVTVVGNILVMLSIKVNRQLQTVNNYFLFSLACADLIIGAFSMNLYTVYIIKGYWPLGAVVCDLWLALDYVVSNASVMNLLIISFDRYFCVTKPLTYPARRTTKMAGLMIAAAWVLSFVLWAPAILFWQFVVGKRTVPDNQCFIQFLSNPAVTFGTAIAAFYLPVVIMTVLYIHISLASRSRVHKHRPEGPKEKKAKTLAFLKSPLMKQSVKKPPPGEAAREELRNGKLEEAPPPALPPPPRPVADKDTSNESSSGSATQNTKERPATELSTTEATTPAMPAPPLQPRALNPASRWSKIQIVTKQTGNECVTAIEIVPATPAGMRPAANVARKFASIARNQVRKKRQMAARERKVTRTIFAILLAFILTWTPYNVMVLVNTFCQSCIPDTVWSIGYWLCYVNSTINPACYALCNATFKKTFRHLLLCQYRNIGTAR
Procedure: (§1) Human or rat M4 cDNA, along with the chimeric G protein Gqi5, were transfected into Chinese hamster ovary (CHO-K1) cells purchased from the American Type Culture Collection using Lipofectamine2000. M4/Gqi5/CHO cells were grown in Ham's F-12 medium containing 10% heat-inactivated fetal bovine serum (FBS), 20 mM HEPES, 500 μg/mL G418 sulfate, and 200 μg/mL Hygromycin B.
(§2) For high throughput measurement of agonist-evoked increases in intracellular calcium, CHO-K1 cells stably expressing muscarinic receptors were plated in growth medium lacking G418 and hygromycin at 15,000 cells/20 μL/well in Greiner 384-well black-walled, tissue culture (TC)-treated, clear-bottom plates (VWR). Cells were incubated overnight at 37° C. and 5% CO2. The next day, cells were washed using an ELX 405 (BioTek) with assay buffer; the final volume was then aspirated to 20 μL. Next, 20 μL of a 2.3 μM stock of Fluo-4/acetoxymethyl ester (Invitrogen, Carlsbad, Calif.), prepared as a 2.3 mM stock in DMSO and mixed in a 1:1 ratio with 10% (w/v) Pluronic F-127 and diluted in assay buffer, was added to the wells and the cell plates were incubated for 50 min at 37° C. and 5% CO2. Dye was removed by washing with the ELX 405 and the final volume was aspirated to 20 μL. Compound master plates were formatted in a 10 point concentration-response curve (CRC) format (1:3 dilutions) in 100% DMSO with a starting concentration of 10 or 1 mM using a BRAVO liquid handler (Agilent). Test compound CRCs were then transferred to daughter plates (240 nL) using the Echo acoustic plate reformatter (Labcyte, Sunnyvale, Calif.) and then diluted into assay buffer (40 μL) to a 2× stock using a Thermo Fisher Combi (Thermo Fisher Scientific, Waltham, Mass.).
(§3) Calcium flux was measured using the Functional Drug Screening System (FDSS) 6000 or 7000 (Hamamatsu Corporation, Tokyo, Japan) as an increase in the fluorescent static ratio. Compounds were applied to cells (20 μL, 2×) using the automated system of the FDSS at 2 seconds into the protocol and the data were collected at 1 Hz. At 143 s, 10 μL of an EC20 concentration of the muscarinic receptor agonist acetylcholine was added (5×), followed by the addition of 12 μL of an EC80 concentration of acetylcholine at the 268 s time point (5×). Agonist activity was analyzed as a concentration-dependent increase in calcium mobilization upon compound addition. Positive allosteric modulator activity was analyzed as a concentration-dependent increase in the EC20 acetylcholine response. Antagonist activity was analyzed as a concentration-dependent decrease in the EC80 acetylcholine response; for the purposes of the tables herein, an IC50 (inhibitory concentration 50) was calculated as a concentration-dependent decrease of the response elicited by an EC80 concentration of acetylcholine. Concentration-response curves were generated using a four-parameter logistical equation in XLFit curve fitting software (IDBS, Bridgewater, N.J.) for Excel (Microsoft, Redmond, Wash.) or Prism (GraphPad Software, Inc., San Diego, Calif.) or the Dotmatics software platform (Dotmatics, Bishop's Stortford, UK).
(§4) Compounds were synthesized as described above. Activity (IC50 and Emin) was determined in the mAChR M4 cell-based functional assay as described above and the data are shown in Table 2.

Rat M4 = target: T2, Rat M4 (Rattus norvegicus, UniProt P08485); experiment: mAChR M4 cell-based functional assay (calcium flux, antagonist mode vs EC80 acetylcholine), rat M4/Gqi5/CHO-K1 cells; settings: for remaining activity at 30 µM: CHO-K1, % ACh maximum at 30 μM, rat M4, read-out: Rat M4 Emin (%); for IC50: decrease of response elicited by EC80 acetylcholine, rat M4/Gqi5 CHO-K1 cells
T2 construct: expressed in transfected cells; host or cells: CHO-K1 (ATCC), stably co-expressing chimeric G protein Gqi5
T2 sequence (P08485 1-478): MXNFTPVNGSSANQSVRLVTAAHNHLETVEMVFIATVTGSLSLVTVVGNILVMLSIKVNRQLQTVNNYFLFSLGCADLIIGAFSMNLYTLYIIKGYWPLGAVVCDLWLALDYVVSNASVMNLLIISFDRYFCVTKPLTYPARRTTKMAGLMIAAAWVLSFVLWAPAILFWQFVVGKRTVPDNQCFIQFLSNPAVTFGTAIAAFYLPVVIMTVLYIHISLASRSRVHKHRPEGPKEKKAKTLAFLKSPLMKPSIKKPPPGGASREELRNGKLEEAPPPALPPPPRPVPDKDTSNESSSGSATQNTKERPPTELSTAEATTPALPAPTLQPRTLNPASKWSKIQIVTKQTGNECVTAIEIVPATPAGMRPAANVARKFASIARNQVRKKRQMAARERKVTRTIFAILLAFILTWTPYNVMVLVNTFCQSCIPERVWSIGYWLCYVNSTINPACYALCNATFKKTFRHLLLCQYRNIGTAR
Procedure: as §1, §2, §3, §4

Q: Which results are given for CC1(C)CC(N2C[C@H]3C[C@H](Nc4ccc(-c5cccc(F)c5)nn4)C[C@H]3C2)CCO1 (stereo partly drawn) [compound 53, (3aR,5s,6aS)-2-(2,2-dimethyltetrahydro-2H-pyran-4-yl)-N-(6-(3-fluorophenyl)pyridazin-3-yl)octahydrocyclopenta[c]pyrrol-5-amine]?
A: remaining activity at 30 µM (Human M4): 3%; IC50 (Human M4): 9.28 nM; remaining activity at 30 µM (Rat M4): 5%; IC50 (Rat M4): 295 nM

Q: Which results are given for O=S(=O)(c1ccc(N[C@H]2C[C@@H]3CN(Cc4ccc5[nH]ccc5c4)C[C@@H]3C2)nn1)C1CCCCC1 [compound 47, (3aR,5s,6aS)-2-((1H-indol-5-yl)methyl)-N-(6-(cyclohexylsulfonyl)pyridazin-3-yl)octahydrocyclopenta[c]pyrrol-5-amine]?
A: remaining activity at 30 µM (Human M4): 4%; IC50 (Human M4): 116 nM; remaining activity at 30 µM (Rat M4): 9%; IC50 (Rat M4): 1570 nM

Q: For CC1(C)CC(N2C[C@H]3C[C@H](Nc4ccc(-c5cccnc5)nn4)C[C@H]3C2)CCO1 (stereo partly drawn) [compound 56, (3aR,5s,6aS)-2-(2,2-dimethyltetrahydro-2H-pyran-4-yl)-N-(6-(pyridin-3-yl)pyridazin-3-yl)octahydrocyclopenta[c]pyrrol-5-amine], which remaining activity at 30 µM (Human M4) is on record?
A: 4%

Q: What about the IC50 (Human M4) of the same compound?
A: 37.7 nM

Q: What about the remaining activity at 30 µM (Rat M4) of the same compound?
A: 14%

Q: What about the IC50 (Rat M4) of the same compound?
A: 7250 nM

Q: For Cc1cc2c(cc1CN1C[C@H]3C[C@H](Nc4ccc(S(=O)(=O)c5ccccc5)nn4)C[C@H]3C1)OCO2 [compound 42, (3aR,5s,6aS)-2-((6-methylbenzo[d][1,3]dioxol-5-yl)methyl)-N-(6-(phenylsulfonyl)pyridazin-3-yl)octahydrocyclopenta[c]pyrrol-5-amine], which remaining activity at 30 µM (Human M4) is on record?
A: 3%

Q: What about the IC50 (Human M4) of the same compound?
A: 1000 nM

Q: And the remaining activity at 30 µM (Rat M4)?
A: 14%

Q: What about the IC50 (Rat M4) of the same compound?
A: 3110 nM

Q: With Cc1cc(CN2C[C@H]3C[C@H](Nc4ccc(S(=O)(=O)c5ccccc5)nn4)C[C@H]3C2)nn1C [compound 24, (3aR,5s,6aS)-2-((1,5-dimethyl-1H-pyrazol-3-yl)methyl)-N-(6-(phenylsulfonyl)pyridazin-3-yl)octahydrocyclopenta[c]pyrrol-5-amine] as the compound, how does the remaining activity at 30 µM (Human M4) read?
A: 8%

Q: And the IC50 (Human M4)?
A: 906 nM

Q: What about the remaining activity at 30 µM (Rat M4) of the same compound?
A: 35%

Q: What about the IC50 (Rat M4) of the same compound?
A: > 10000 nM

Q: What does the source list for Fc1ccc(Cl)c(-c2ccc(N[C@H]3C[C@@H]4CN(C5CCOCC5)C[C@@H]4C3)nn2)c1 [compound 2, (3aR,5s,6aS)-N-(6-(2-chloro-5-fluorophenyl)pyridazin-3-yl)-2-(tetrahydro-2H-pyran-4-yl)octahydrocyclopenta[c]pyrrol-5-amine]?
A: remaining activity at 30 µM (Human M4): 5%; IC50 (Human M4): 64.7 nM; remaining activity at 30 µM (Rat M4): 6%; IC50 (Rat M4): 1270 nM

Q: For Cc1cc(CN2C[C@H]3C[C@H](Nc4ccc(S(=O)(=O)C5CCCCC5)nn4)C[C@H]3C2)ccc1F [compound 38, (3aR,5s,6aS)-N-(6-(cyclohexylsulfonyl)pyridazin-3-yl)-2-(4-fluoro-3-methylbenzyl)octahydrocyclopenta[c]pyrrol-5-amine], which remaining activity at 30 µM (Human M4) is on record?
A: 4%

Q: And the IC50 (Human M4)?
A: 188 nM

Q: What about the remaining activity at 30 µM (Rat M4) of the same compound?
A: 3%

Q: And the IC50 (Rat M4)?
A: 591 nM

Q: [O-][S+](c1ccccc1)c1ccc(N[C@H]2C[C@@H]3CN(Cc4ccc5c(c4)OCO5)C[C@@H]3C2)nn1 (stereo partly drawn) [compound 30, (3aR,5s,6aS)-2-(benzo[d][1,3]dioxol-5-ylmethyl)-N-(6-(phenylsulfinyl)pyridazin-3-yl)octahydrocyclopenta[c]pyrrol-5-amine] was tested. Which remaining activity at 30 µM (Human M4) did it give?
A: 4%

Q: And the IC50 (Human M4)?
A: 7.8 nM

Q: What about the remaining activity at 30 µM (Rat M4) of the same compound?
A: 4%

Q: And the IC50 (Rat M4)?
A: 196 nM

Q: With CC1(C)CC(N2C[C@H]3C[C@H](Nc4ncc(-c5ccccc5)s4)C[C@H]3C2)CCO1 (stereo partly drawn) [compound 19, N-((3aR,5s,6aS)-2-(2,2-dimethyltetrahydro-2H-pyran-4-yl)octahydrocyclopenta[c]pyrrol-5-yl)-5-phenylthiazol-2-amine] as the compound, how does the remaining activity at 30 µM (Rat M4) read?
A: 70%

Q: What about the IC50 (Rat M4) of the same compound?
A: > 10000 nM

Q: Which remaining activity at 30 µM (Human M4) does the source give for N#Cc1ccccc1N1C[C@H]2C[C@H](Nc3ccc(-c4cc(F)ccc4Cl)nn3)C[C@H]2C1 [compound 17, 2-((3aR,5s,6aS)-5-((6-(2-chloro-5-fluorophenyl)pyridazin-3-yl)amino)hexahydrocyclopenta[c]pyrrol-2(1H)-yl)benzonitrile] here?
A: 57%

Q: And the IC50 (Human M4)?
A: ≥ 10000 nM

Q: With O=C(NC1CCCCC1)c1ccc(N[C@H]2C[C@@H]3CN(CC4CCOCC4)C[C@@H]3C2)nn1 [compound 4, N-cyclohexyl-6-(((3aR,5s,6aS)-2-((tetrahydro-2H-pyran-4-yl)methyl)octahydrocyclopenta[c]pyrrol-5-yl)amino)pyridazine-3-carboxamide] as the compound, how does the remaining activity at 30 µM (Human M4) read?
A: 6%

Q: And the IC50 (Human M4)?
A: 535 nM

Q: Which results are given for O=C(Nc1cccc(F)c1)c1ccc(N[C@H]2C[C@@H]3CN(CC4CCOCC4)C[C@@H]3C2)nn1 [compound 9, N-(3-fluorophenyl)-6-(((3aR,5s,6aS)-2-((tetrahydro-2H-pyran-4-yl)methyl)octahydrocyclopenta[c]pyrrol-5-yl)amino)pyridazine-3-carboxamide]?
A: remaining activity at 30 µM (Human M4): 3%; IC50 (Human M4): 713 nM

Q: Which results are given for O=C(NC1CC1)c1ccc(N[C@H]2C[C@@H]3CN(CC4CCOCC4)C[C@@H]3C2)nn1 [compound 3, N-cyclopropyl-6-(((3aR,5s,6aS)-2-((tetrahydro-2H-pyran-4-yl)methyl)octahydrocyclopenta[c]pyrrol-5-yl)amino)pyridazine-3-carboxamide]?
A: remaining activity at 30 µM (Human M4): 9%; IC50 (Human M4): 417 nM

Q: Which remaining activity at 30 µM (Human M4) does the source give for CC1(C)CC(N2C[C@H]3C[C@H](Nc4ccc5nncn5n4)C[C@H]3C2)CCO1 (stereo partly drawn) [compound 61, N-((3aR,5s,6aS)-2-(2,2-dimethyltetrahydro-2H-pyran-4-yl)octahydrocyclopenta[c]pyrrol-5-yl)-[1,2,4]triazolo[4,3-b]pyridazin-6-amine] here?
A: 52%

Q: What about the IC50 (Human M4) of the same compound?
A: > 10000 nM
